Source: BigSolDB 2.1

Cc1cc(=O)[nH]c(=S)[nH]1
solubility (mole fraction)
Conditions	278.15 K	283.15 K	288.15 K	293.15 K	298.15 K	303.15 K	308.15 K	313.15 K	318.15 K	323.15 K
in DMF	0.0117	0.0144	0.0174	0.0207	0.0252	0.0294	0.0346	0.0396	0.0463	0.0538
in DMSO	–	–	–	0.0379	0.0432	0.0491	0.0549	0.0619	0.0692	0.0773
in NMP	0.013	0.0155	0.0181	0.0212	0.0246	0.0288	0.0334	0.0391	0.0454	0.051
in water	2.53e-05	3.23e-05	4.15e-05	5.26e-05	6.68e-05	8.48e-05	0.000106	0.000129	0.000156	0.000187
